Common to all, as to test: SPR, protein over lipid vesicles on L1 chip
Type in all cases: binding

For test [1], the target named is T1, sTIM-3 (Homo sapiens, UniProt Q8TDQ0).
T1 sequence (Q8TDQ0 22-202 limits assumed): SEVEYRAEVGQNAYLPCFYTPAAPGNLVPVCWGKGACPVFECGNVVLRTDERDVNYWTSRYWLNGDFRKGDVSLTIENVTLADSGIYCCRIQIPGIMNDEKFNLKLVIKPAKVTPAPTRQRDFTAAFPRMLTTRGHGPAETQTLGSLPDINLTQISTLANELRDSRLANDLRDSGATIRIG

The target in test [2] is T2, sTIM-3 (Homo sapiens, UniProt Q8TDQ0, F61A).
T2 sequence (Q8TDQ0 22-202 F61A limits assumed): T1 sequence (Q8TDQ0 22-202 limits assumed) with F40A

In a further test the target is T3, sTIM-1 (Homo sapiens, UniProt Q96D42).
T3 sequence (Q96D42 21-295 limits assumed): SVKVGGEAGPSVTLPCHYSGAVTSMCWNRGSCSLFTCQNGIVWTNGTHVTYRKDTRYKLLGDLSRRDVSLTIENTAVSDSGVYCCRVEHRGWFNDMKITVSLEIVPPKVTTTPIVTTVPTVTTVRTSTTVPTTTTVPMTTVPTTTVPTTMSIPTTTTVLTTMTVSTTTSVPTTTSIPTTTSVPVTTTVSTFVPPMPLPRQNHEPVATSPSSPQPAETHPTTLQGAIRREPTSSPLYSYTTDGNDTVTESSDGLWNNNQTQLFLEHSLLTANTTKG

A further test addresses T4, sTIM-4 (Homo sapiens, UniProt Q96H15).
T4 sequence (Q96H15 25-314 limits assumed): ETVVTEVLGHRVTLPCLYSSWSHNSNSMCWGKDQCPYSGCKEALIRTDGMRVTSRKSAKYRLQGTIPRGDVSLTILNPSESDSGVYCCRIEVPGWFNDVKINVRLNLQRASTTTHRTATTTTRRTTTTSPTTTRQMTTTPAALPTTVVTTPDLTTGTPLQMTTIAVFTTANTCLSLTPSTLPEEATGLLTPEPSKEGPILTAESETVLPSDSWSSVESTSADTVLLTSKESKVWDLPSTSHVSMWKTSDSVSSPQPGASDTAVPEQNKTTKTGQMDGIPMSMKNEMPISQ

In test [3] the target is T5, sTIM-3 (Homo sapiens, UniProt Q8TDQ0, I117A/M118A).
T5 sequence (Q8TDQ0 22-202 I117A/M118A limits assumed): T1 sequence (Q8TDQ0 22-202 limits assumed) with I96A, M97A

Positions count from the first letter of the chain named. Where only a bound is given, the exact number is not on record here.

Turning to `CCCCCCCC/C=C\CCCCCCCC(=O)OC[C@H](COP(=O)(O)OC[C@H](N)C(=O)O)OC(=O)CCCCCCC/C=C\CCCCCCCC` [DOPS], the dissociation constant Kd on sTIM-3 [1] is 9.7 ± 4.2 µM; at sTIM-3 [2], > 200 µM; at sTIM-1, 0.35 ± 0.05 µM; on sTIM-4 it was 0.77 ± 0.32 µM; at sTIM-3 [3], > 200 µM.

Usually Kd stands for the free concentration of one partner at which half of the binding sites on the other are occupied at equilibrium, for simple one-to-one binding.

These data come from publication PMC8454703 (Biochemical Journal, 2021).
